SMILES strings stand for the structures. Counter-ions that a name gives are not always drawn.

The target of series [1] is human D3 receptor (DA D3) (Homo sapiens, UniProt P35462). Description: inhibition of [^3 H]spiperone binding to the human D3 receptor. The conditions noted are these: human D3, [^3 H]spiperone.
The target of series [2] is human D2 receptor (DA D2) (Homo sapiens, UniProt P14416). As to the kind of experiment: inhibition of [^3 H]spiperone binding to the human D2 receptor. The conditions noted are these: human D2, [^3 H]spiperone.
The target in series [3] is T1, human D4 dopamine receptor (DA D4) (Homo sapiens, UniProt P21917).
T1 sequence (P21917 1-419): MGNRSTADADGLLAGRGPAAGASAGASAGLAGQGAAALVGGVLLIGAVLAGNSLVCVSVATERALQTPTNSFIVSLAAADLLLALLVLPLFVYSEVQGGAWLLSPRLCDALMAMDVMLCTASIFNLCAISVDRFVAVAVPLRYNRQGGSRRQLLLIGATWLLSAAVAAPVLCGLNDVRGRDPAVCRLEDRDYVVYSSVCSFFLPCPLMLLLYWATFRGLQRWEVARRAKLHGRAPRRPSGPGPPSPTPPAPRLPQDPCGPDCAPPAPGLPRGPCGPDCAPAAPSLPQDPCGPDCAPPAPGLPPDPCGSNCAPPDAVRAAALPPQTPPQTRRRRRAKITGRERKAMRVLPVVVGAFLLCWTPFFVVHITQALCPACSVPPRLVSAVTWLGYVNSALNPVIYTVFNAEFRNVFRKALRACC
Description: inhibition of radioligand binding to the human D4 dopamine receptor. The method, then:
Compounds were tested for their ability to bind to dopamine receptors as measured by their inhibition of [^3 H]spiperone binding to the human D2, D3 receptors in a receptor assay described by MacKenzie R. G., VanLeeuwen D., Pugsley T. A., et al., "Characterization of the human dopamine D3 receptor expressed in transfected cell lines." Eur. J. Pharmacol.-Mol. Pharmacol., 1994;266:79-85; for the human D4 dopamine receptor in a receptor assay by Pugsley T. A., Davis M. D., Akunne H. C., et al., "CI-1007, a dopamine partial agonist and potential antipsychotic agent. I. Neurochemical Effects." J. Pharmacol. Exp. Ther., 1995;274:898-911; and for ability to block the action of an agonist in a [^3 H]thymidine incorporation assay described by Lajiness N. E., Chio C. L., Huff R. M., "D2 dopamine receptor stimulation of mitogenesis in transfected Chinese hamster ovary cells: relationship to dopamine stimulation of tyrosine phosphorylations." J. Pharmacol. Exp. Ther., 1993;267:1573-81. This test determines the agonist/antagonist character of a compound by measuring [^3 H]thymidine update in Chinese hamster ovary (CHO) pro-5 cells expressing the DA D4 receptor. Agonists, such as quinpirole, promote cell growth and subsequent [^3 H]thymidine incorporation, while antagonists block the action of agonists. […] The above test methods are incorporated herein by reference.

The next series has as its system DA D4 receptor. The conditions noted are these: D4 versus D2; Van Tol et al., Nature 1991; cited from earlier work.
For series [4] the following is noted: clozapine, background section; cited from earlier work.

Chain of human D3 receptor (DA D3) (P35462 whole entry): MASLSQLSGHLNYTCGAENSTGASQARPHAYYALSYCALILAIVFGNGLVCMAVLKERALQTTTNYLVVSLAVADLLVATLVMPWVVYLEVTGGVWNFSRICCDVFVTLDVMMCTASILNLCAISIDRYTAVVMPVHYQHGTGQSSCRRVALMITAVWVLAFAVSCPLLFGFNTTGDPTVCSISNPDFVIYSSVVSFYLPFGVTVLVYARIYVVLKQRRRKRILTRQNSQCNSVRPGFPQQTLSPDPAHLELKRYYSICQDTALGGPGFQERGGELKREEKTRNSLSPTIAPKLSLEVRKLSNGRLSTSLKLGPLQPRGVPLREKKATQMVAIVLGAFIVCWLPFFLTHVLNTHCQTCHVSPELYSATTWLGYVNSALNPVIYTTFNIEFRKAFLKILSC
Chain of human D2 receptor (DA D2) (P14416 whole entry): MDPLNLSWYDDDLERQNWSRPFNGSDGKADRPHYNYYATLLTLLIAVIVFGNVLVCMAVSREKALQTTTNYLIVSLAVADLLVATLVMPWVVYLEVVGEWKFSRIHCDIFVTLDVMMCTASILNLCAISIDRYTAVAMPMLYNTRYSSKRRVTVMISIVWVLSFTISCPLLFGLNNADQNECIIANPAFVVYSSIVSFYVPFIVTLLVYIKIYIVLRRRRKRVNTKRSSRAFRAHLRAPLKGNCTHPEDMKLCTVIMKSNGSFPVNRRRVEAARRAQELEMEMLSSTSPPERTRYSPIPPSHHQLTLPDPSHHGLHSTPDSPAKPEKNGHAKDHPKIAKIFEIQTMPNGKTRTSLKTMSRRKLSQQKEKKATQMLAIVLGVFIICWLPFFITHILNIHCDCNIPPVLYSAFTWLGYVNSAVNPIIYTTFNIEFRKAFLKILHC

As for `COc1cc(CN2CCN(c3cccc(C)c3)CC2)cc(OC)c1OC` [Example 7, 1-m-Tolyl-4-(3,4,5-trimethoxybenzyl)piperazine, monohydrochloride], the Ki is 2770 nM in series [1], 1460 nM in series [2] and 8.6 nM in series [3].

Turning to `COc1cc(CN2CCN(c3ccc(C)cc3)CC2)cc(OC)c1OC` [Example 8, 1-p-Tolyl-4-(3,4,5-trimethoxybenzyl)piperazine, monohydrochloride], the Ki in series [1] was determined as 6820 nM; in series [2], 1410 nM; in series [3], 7.5 nM.

Take `COc1cc(CN2CCN(c3cccc(Cl)c3C)CC2)cc(OC)c1OC` [Example 19, 1-(3-Chloro-2-methylphenyl)-4-(3,4,5-trimethoxybenzyl)-piperazine, monohydrochloride]: the Ki in series [1] worked out at 2120 nM; in series [2], 1050 nM; in series [3], 6.1 nM.

Regarding `COc1cc(CN2CCN(c3ccc(C)c(Cl)c3)CC2)cc(OC)c1OC` [Example 20, 1-(3-Chloro-4-methylphenyl)-4-(3,4,5-trimethoxybenzyl)-piperazine, monohydrochloride], the Ki in series [1] was 2030 nM; in series [2], 3290 nM; in series [3], 4.5 nM.

`COc1cc(CN2CCN(c3cc(Cl)ccc3C)CC2)cc(OC)c1OC` [Example 21, 1-(5-Chloro-2-methylphenyl)-4-(3,4,5-trimethoxybenzyl)-piperazine, monohydrochloride]: the Ki was 3510 nM in series [1], 1560 nM in series [2] and 6.5 nM in series [3].

With `COc1cccc(CN2CCN(c3cccc(C)c3Cl)CC2)c1OC` [Example 26, 1-(2-Chloro-3-methylphenyl)-4-(2,3-dimethoxybenzyl)-piperazine, monohydrochloride], the Ki in series [1] was 2650 nM; in series [2] it was 2900 nM; in series [3] it was 12.7 nM.

As for `COc1ccc(CN2CCN(c3cccc(C)c3Cl)CC2)c(OC)c1` [Example 27, 1-(2-Chloro-3-methylphenyl)-4-(2,4-dimethoxybenzyl)-piperazine, monohydrochloride], the Ki was 409 nM in series [1], 762 nM in series [2] and 4.4 nM in series [3].

Turning to `COc1ccc(OC)c(CN2CCN(c3cccc(C)c3Cl)CC2)c1` [Example 28, 1-(2-Chloro-3-methylphenyl)-4-(2,5-dimethoxybenzyl)-piperazine, monohydrochloride], the figures for the Ki in series [1], in series [2] and in series [3] were 730 nM, 2080 nM and 11.3 nM, respectively.

Consider `COc1ccc(CN2CCN(c3cccc(C)c3Cl)CC2)cc1OC` [Example 29, 1-(2-Chloro-3-methylphenyl)-4-(3,4-dimethoxybenzyl)-piperazine, monohydrochloride], for which the values for the Ki in series [1], in series [2] and in series [3] were 1210 nM, 2340 nM and 5 nM, respectively.

As for `CN1CCN(C2=Nc3cc(Cl)ccc3Nc3ccccc32)CC1` [clozapine], the “affinity for the DA D4 receptor relative to D2” value in the series with DA D4 receptor was “tenfold higher affinity”. In addition, in series [4], the “extrapyramidal side effects and tardive dyskinesia” value was “lack of extrapyramidal side effects and tardive dyskinesia”.

(Values after patent publication US5965560A, “Substituted piperazines and piperidines as central nervous system agents” (priority 1997, dated 1999).)
